Where “and” joins values, the source holds several entries; their conditions need not be identical. Equal entries are not always repeated.
Experiment: Accelerated and long term stability study of TTI-101 (Batch A, Batch B): HPLC assay, purity, impurities and water content after storage at 5° C., 25° C./60% RH, 30° C./65% RH or 40° C./75% RH
Type: physicochemical
Settings: for Impurities RRT 1.06: RRT of Compound 4; for Impurities RRT 0.99: RRT of compound of formula (IV)
Method: Exemplary HPLC conditions: diluent was 0.1% trifluoroacetic acid (TFA) in acetonitrile, Mobile Phase A was 0.05% TFA in water, and Mobile Phase B was 0.05% TFA in acetonitrile, column (Agilent, Eclipse XDB-C18, 3.0×100 mm, particle size 1.8 μm), flow (0.425 mL/min), and detector (280 nm diode array).
Batch A was prepared analogously using Method 3 as described in Example 1. Batch B was prepared according to Method 5 as described in Example 1.
Samples of TTI-101 were stored at 5° C., 25° C./60% RH, 30° C./65% RH, or 40° C./75% RH. TTI-101 was stored in an LDPE bag enclosed with a Nylon cable tie and then transferred to another LDPE bag and enclosed with a Nylon cable tie. The enclosure was put into an HDPE bottle and closed with a polyethylene-lined polypropylene cap. The samples were stored under the above-identified conditions.
The samples were analyzed using HPLC with the exemplary conditions identified above. Relative retention time (RRT) for Compound 5 was about 0.83, Compound 4 was about 1.05-1.06, Compound 6 was about 1.15-1.17, and compound of formula (IV) was about 0.99.
• NA not applicable • NQ ≥0.02% and <0.05% • Avg average • Cmpd compound • — no peak • M month • RRT relative retention time

[1] = 25° C./60% RH, 6 M, P1/P2, listed as Batch A
[2] = 25° C./60% RH, 9 M, P1/P2, listed as Batch A
[3] = 25° C./60% RH, 12 M, P1/P2, listed as Batch A
[4] = 40° C./75% RH, 0 M, P1/P2, listed as Batch A
[5] = 40° C./75% RH, 2 M, P1/P2, listed as Batch A
[6] = 40° C./75% RH, 6 M, P1/P2, listed as Batch A

COc1ccc(S(=O)(=O)Nc2cc(-c3c(O)ccc4ccccc34)c(O)c3ccccc23)cc1 [TTI-101]
Purity (%) (25° C./60% RH, 3 M, P1/P2): 99.7% | Water Content (%) (25° C./60% RH, 3 M, P1/P2): <0.04% | Assay (%) (25° C./60% RH, 3 M, P1/P2, listed as Batch A): 99.0% and 100.0% | Assay (%) (25° C./60% RH, 6 M, Avg): 98.2% | Impurities RRT 1.15 (Cmpd 6) (25° C./60% RH, 6 M, Avg): 0.11 area % | Impurities Total (25° C./60% RH, 6 M, Avg): 0.1 area % | Purity (%) (25° C./60% RH, 6 M, Avg): 99.9% | Water Content (%) (25° C./60% RH, 6 M, Avg): <0.04% | Impurities Total (25° C./60% RH, 6 M, P1/P2): 0.1 area % | Purity (%) (25° C./60% RH, 6 M, P1/P2): 99.9% | Water Content (%) (25° C./60% RH, 6 M, P1/P2): <0.04% | Assay (%) [1]: 97.0% and 99.5% | Impurities RRT 1.15 (Cmpd 6) [1]: 0.11 area % and 0.12 area % | Assay (%) (25° C./60% RH, 9 M, Avg): 98.4% | Impurities RRT 1.16 (Cmpd 6) (25° C./60% RH, 9 M, Avg): 0.10 area % | Impurities Total (25° C./60% RH, 9 M, Avg): 0.1 area % | Purity (%) (25° C./60% RH, 9 M, Avg): 99.9% | Water Content (%) (25° C./60% RH, 9 M, Avg): <0.04% | Impurities Total (25° C./60% RH, 9 M, P1/P2): 0.1 area % | Purity (%) (25° C./60% RH, 9 M, P1/P2): 99.9% | Water Content (%) (25° C./60% RH, 9 M, P1/P2): <0.04% | Assay (%) [2]: 99.7% and 97.0% | Impurities RRT 1.16 (Cmpd 6) [2]: 0.11 area % and 0.10 area % | Assay (%) (25° C./60% RH, 12 M, Avg): 98.5% | Impurities RRT 1.06 (Cmpd 4) (25° C./60% RH, 12 M, Avg): NQ (≥0.02% and <0.05%) | Impurities RRT 1.16 (Cmpd 6) (25° C./60% RH, 12 M, Avg): 0.39 area % | Impurities RRT 1.52 (25° C./60% RH, 12 M, Avg): NQ (≥0.02% and <0.05%) | Impurities Total (25° C./60% RH, 12 M, Avg): 0.4 area % | Purity (%) (25° C./60% RH, 12 M, Avg): 99.6% | Water Content (%) (25° C./60% RH, 12 M, Avg): 0.04% | Impurities RRT 1.06 (Cmpd 4) (25° C./60% RH, 12 M, P1/P2): NQ (≥0.02% and <0.05%) | Impurities RRT 1.16 (Cmpd 6) (25° C./60% RH, 12 M, P1/P2): 0.39 area % | Impurities Total (25° C./60% RH, 12 M, P1/P2): 0.4 area % | Purity (%) (25° C./60% RH, 12 M, P1/P2): 99.6% | Assay (%) [3]: 98.3% and 98.6% | Water Content (%) [3]: <0.04% and 0.04% | Assay (%) (25° C./60% RH, 18 M, Avg): 98.2% | Impurities RRT 1.15 (Cmpd 6) (25° C./60% RH, 18 M, Avg): 0.10 area % | Impurities Total (25° C./60% RH, 18 M, Avg): 0.1 area % | Purity (%) (25° C./60% RH, 18 M, Avg): 99.9% | Water Content (%) (25° C./60% RH, 18 M, Avg): <0.04% | Impurities RRT 1.15 (Cmpd 6) (25° C./60% RH, 18 M, P1/P2): 0.10 area % | Impurities Total (25° C./60% RH, 18 M, P1/P2): 0.1 area % | Purity (%) (25° C./60% RH, 18 M, P1/P2): 99.9% | Water Content (%) (25° C./60% RH, 18 M, P1/P2): <0.04% | Impurities RRT 1.06 (25° C./60% RH, 18 M, P1/P2): NQ (≥0.02% and <0.05%) | Assay (%) (25° C./60% RH, 18 M, P1/P2, listed as Batch A): 98.3% and 98.2% | Assay (%) (25° C./60% RH, 24 M, Avg): 99.3% | Impurities RRT 1.16 (Cmpd 6) (25° C./60% RH, 24 M, Avg): 0.12 area % | Impurities Total (25° C./60% RH, 24 M, Avg): 0.1 area % | Purity (%) (25° C./60% RH, 24 M, Avg): 99.9% | Water Content (%) (25° C./60% RH, 24 M, Avg): <0.04% | Impurities RRT 1.16 (Cmpd 6) (25° C./60% RH, 24 M, P1/P2): 0.12 area % | Impurities Total (25° C./60% RH, 24 M, P1/P2): 0.1 area % | Purity (%) (25° C./60% RH, 24 M, P1/P2): 99.9% | Water Content (%) (25° C./60% RH, 24 M, P1/P2): <0.04% | Impurities RRT 1.06 (25° C./60% RH, 24 M, P1/P2): NQ (≥0.02% and <0.05%) | Assay (%) (25° C./60% RH, 24 M, P1/P2, listed as Batch A): 99.1% and 99.6% | Assay (%) (40° C./75% RH, 0 M, Avg): 99.8% | Impurities RRT 1.06 (Cmpd 4) (40° C./75% RH, 0 M, Avg): NQ (≥0.02% and <0.05%) | Impurities RRT 1.17 (Cmpd 6) (40° C./75% RH, 0 M, Avg): 0.13 area % | Impurities RRT 1.32 (40° C./75% RH, 0 M, Avg): NQ (≥0.02% and <0.05%) | Impurities Total (40° C./75% RH, 0 M, Avg): 0.1 area % | Purity (%) (40° C./75% RH, 0 M, Avg): 99.8% | Water Content (%) (40° C./75% RH, 0 M, Avg): <0.04% | Impurities RRT 0.99 (40° C./75% RH, 0 M, Avg): NQ (≥0.02% and <0.05%) | Impurities RRT 1.32 (40° C./75% RH, 0 M, P1/P2): NQ (≥0.02% and <0.05%) | Impurities Total (40° C./75% RH, 0 M, P1/P2): 0.1 area % | Purity (%) (40° C./75% RH, 0 M, P1/P2): 99.8% | Water Content (%) (40° C./75% RH, 0 M, P1/P2): <0.04% | Assay (%) [4]: 99.9% and 99.7% | Impurities RRT 1.17 (Cmpd 6) [4]: 0.13 area % and 0.12 area % | Assay (%) (40° C./75% RH, 2 M, Avg): 99.9% | Impurities RRT 1.16 (Cmpd 6) (40° C./75% RH, 2 M, Avg): 0.07 area % | Impurities RRT 1.29 (40° C./75% RH, 2 M, Avg): NQ (≥0.02% and <0.05%) | Impurities RRT 1.38 (40° C./75% RH, 2 M, Avg): NQ (≥0.02% and <0.05%) | Impurities Total (40° C./75% RH, 2 M, Avg): 0.1 area % | Purity (%) (40° C./75% RH, 2 M, Avg): 99.9% | Water Content (%) (40° C./75% RH, 2 M, Avg): <0.04% | Impurities RRT 0.99 (40° C./75% RH, 2 M, Avg): NQ (≥0.02% and <0.05%) | Impurities RRT 1.38 (40° C./75% RH, 2 M, P1/P2): NQ (≥0.02% and <0.05%) | Impurities Total (40° C./75% RH, 2 M, P1/P2): 0.1 area % | Purity (%) (40° C./75% RH, 2 M, P1/P2): 99.9% | Water Content (%) (40° C./75% RH, 2 M, P1/P2): <0.04% | Impurities RRT 0.99 (40° C./75% RH, 2 M, P1/P2): NQ (≥0.02% and <0.05%) | Assay (%) [5]: 100.0% and 99.8% | Impurities RRT 1.16 (Cmpd 6) [5]: 0.08 area % and 0.06 area % | Assay (%) (40° C./75% RH, 3 M, Avg): 99.0% | Impurities RRT 0.36 (40° C./75% RH, 3 M, Avg): NQ (≥0.02% and <0.05%) | Impurities RRT 1.06 (Cmpd 4) (40° C./75% RH, 3 M, Avg): 0.07 area % | Impurities RRT 1.16 (Cmpd 6) (40° C./75% RH, 3 M, Avg): 0.21 area % | Impurities Total (40° C./75% RH, 3 M, Avg): 0.3 area % | Purity (%) (40° C./75% RH, 3 M, Avg): 99.7% | Water Content (%) (40° C./75% RH, 3 M, Avg): <0.04% | Impurities RRT 1.06 (Cmpd 4) (40° C./75% RH, 3 M, P1/P2): 0.07 area % | Impurities RRT 1.16 (Cmpd 6) (40° C./75% RH, 3 M, P1/P2): 0.21 area % | Impurities Total (40° C./75% RH, 3 M, P1/P2): 0.3 area % | Purity (%) (40° C./75% RH, 3 M, P1/P2): 99.7% | Water Content (%) (40° C./75% RH, 3 M, P1/P2): <0.04% | Assay (%) (40° C./75% RH, 3 M, P1/P2, listed as Batch A): 100.8% and 97.2% | Impurities RRT 1.15 (Cmpd 6) (40° C./75% RH, 6 M, Avg): 0.13 area % | Impurities Total (40° C./75% RH, 6 M, Avg): 0.1 area % | Purity (%) (40° C./75% RH, 6 M, Avg): 99.9% | Water Content (%) (40° C./75% RH, 6 M, Avg): <0.04% | Impurities Total (40° C./75% RH, 6 M, P1/P2): 0.1 area % | Purity (%) (40° C./75% RH, 6 M, P1/P2): 99.9% | Water Content (%) (40° C./75% RH, 6 M, P1/P2): <0.04% | Assay (%) [6]: 98.5% and 95.9% | Impurities RRT 1.15 (Cmpd 6) [6]: 0.13 area % and 0.12 area % | Assay (%) (40° C./75% RH, 8 M, Avg): 100.3% | Impurities RRT 1.16 (Cmpd 6) (40° C./75% RH, 8 M, Avg): 0.08 area % | Impurities Total (40° C./75% RH, 8 M, Avg): 0.1 area % | Purity (%) (40° C./75% RH, 8 M, Avg): 99.9% | Water Content (%) (40° C./75% RH, 8 M, Avg): 0.04% | Impurities Total (40° C./75% RH, 8 M, P1-P6): 0.1 area % | Purity (%) (40° C./75% RH, 8 M, P1-P6): 99.9% | Assay (%) (40° C./75% RH, 8 M, P1-P6, listed as Batch A): 100.0% and 99.8% and 100.3% and 100.6% and 99.9% and 100.8% | Impurities Total (Storage 5° C., 0 M, Avg): 0.1 area % | Impurity RRT 0.61 (Storage 5° C., 0 M, Avg): 0.05 area % | Impurity RRT 0.86 (Storage 5° C., 0 M, Avg): NQ (≥0.02% and <0.05%) | Impurity RRT 0.88 (Storage 5° C., 0 M, Avg): NQ (≥0.02% and <0.05%) | Impurity RRT 0.99 (Storage 5° C., 0 M, Avg): NQ (≥0.02% and <0.05%) | Impurity RRT 1.16 (Cmp 6) (Storage 5° C., 0 M, Avg): 0.07 area % | Purity (Storage 5° C., 0 M, Avg): 99.8%

Source: patent US20240033234A1, “THERAPEUTIC COMPOUNDS, FORMULATIONS, AND USE THEREOF” (Tvardi Therapeutics, Inc., priority 2022, published 2024)
